# How the values were obtained:
# [1] = system: α-glucosidase from Saccharomyces sp.; test: α-glucosidase inhibitory activity assay (pNPG substrate, absorbance 405 nm); format: biochemical
# Excerpt: ^1H- and ^13C-NMR spectra and correlation NMR spectra such as COSY, HMBC, HMQC, and DEPT were obtained from a Bruker Avance DPX 400 (or 600) spectrometer (Berlin, Germany). These were obtained at operating frequencies of 400 MHz (^1H) and 100 (or 150) MHz (^13C) with CD3OD, (CD3)2SO, (CD3)2CO, or D2O and TMS was used as an internal standard; chemical shifts were reported in δ values. The α-glucosidase from Saccharomyces sp. (SSG) was purchased from Wako Pure Chemical Industries Ltd (Tokyo, Japan). […] All other chemicals and reagents used were of analytical grade.
# The α-glucosidase inhibitory activity of the extracts and fractions was determined using a modified procedure reported method with a slight modification. The α-glucosidase activity was measured using the substrate p-nitrophenyl-α-D-glucopyranoside (pNPG), which is hydrolyzed by α-glucosidase to release the product p-nitrophenol, a colorant that can be monitored at 405 nm. The initial concentration of the enzyme solution was 0.62 unit/mL in 0.1 M phosphate buffer (pH 6.9) and the initial concentration of the substrate solution was 2 mM in the same phosphate buffer. The enzyme solution was mixed with water and the samples or controls in a clear 96-well microplate (flat bottom) and the reaction was initiated by addition of the substrate to the solution. The plates were incubated at 37 °C for 5 min and the reaction was terminated by the addition of 0.1 M Na2CO3. […] Background absorbance was determined using a non-enzyme control microplate containing the buffer and was subtracted from the absorbance of the samples and controls.
# [2] = system: advanced glycation end products (AGEs); test: AGEs inhibitory activity, bovine serum albumin-methylglyoxal assay (fluorescence); format: biochemical; details: for IC50 AGEs: - is no activity
# Description: The modified procedure of Lee et al. was followed. Bovine serum albumin (10 mg/mL) was incubated with 5 mM methylglyoxal in sodium phosphate buffer (100 mM; pH 7.4). […] All of the reagents and samples were […] by filtration through 0.2 μm membrane filters and the mixture was incubated at 37 °C for 7 days. The fluorescence intensity was measured at an excitation wavelength of 330 nm and an emission wavelength of 410 nm with a LS50B fluorescence spectrometer Perkin-Elmer Ltd., (Buckinghamshire, FLS, UK). Aminoguanidine was also tested as a known inhibitor.
# [3] = system: recombinant aldose reductase; details: compounds from X. strumarium; cited from earlier work
# [4] = target: T1, protein tyrosine phosphatase 1β (PTP1β) (Homo sapiens, UniProt P18031); test: PTP1β inhibitory activity assay (colorimetric kit, IR5 phosphopeptide substrate); format: biochemical; details: for inhibition at 10 µg/mL: 10 μg/mL; for inhibition at 10 µg/mL / IC50: - is no activity; for IC50: isolated compounds
# T1 sequence (P18031 1-322 limits assumed): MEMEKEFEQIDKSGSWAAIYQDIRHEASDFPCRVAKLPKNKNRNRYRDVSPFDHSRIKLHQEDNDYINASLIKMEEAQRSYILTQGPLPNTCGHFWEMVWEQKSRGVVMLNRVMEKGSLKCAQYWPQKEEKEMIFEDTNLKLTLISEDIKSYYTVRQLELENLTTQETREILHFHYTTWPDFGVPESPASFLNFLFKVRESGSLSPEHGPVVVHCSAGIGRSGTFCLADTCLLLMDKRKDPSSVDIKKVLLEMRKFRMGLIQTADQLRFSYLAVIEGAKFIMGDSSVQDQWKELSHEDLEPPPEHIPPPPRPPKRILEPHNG
# Description: PTP1β tyrosine phosphatase drug discovery kit is a colorimetric, non-radioactive assay designed to measure the phosphatase activity of purified PTP1β. […] Following incubation at 37 °C for 30 min, the reaction was terminated with the BIOMOL RED^TM reagent. The amount of […] produced was estimated by measuring the absorbance at 620 nm. The non-enzymatic hydrolysis of the IR5 substrate was corrected by measuring the increase in absorbance at 620 nm obtained in the absence of PTP1β enzyme.
# [5] = system: rat lens aldose reductase; details: compounds from X. strumarium; cited from earlier work
# [6] = ABTS^+ radical scavenging activity assay; details: for IC50 / IC50 ABTS^+ radical scavenging: isolated compounds
# Description: The method described by Li et al. was used with slight modifications. ABTS^+ diammonium salt (2 mM) and potassium persulfate (3.5 mM) were mixed, diluted in distilled water and kept in the dark at room temperature for 24 h before use. After addition of ABTS^+ solution to 10 µL of antioxidant, measurements were recorded at 10 min post reaction. The percentage inhibition of absorbance at 750 nm was calculated and plotted as a function of concentration of antioxidants. Trolox was used as positive control.
# [7] = Table 2, crude extract and fractions, - is no activity
# [8] = isolated compounds, - is no activity
smiles,measurement,setting,value
"O=C(/C=C/c1ccc(O)c(O)c1)O[C@@H]1C[C@](OC(=O)/C=C/c2ccc(O)c(O)c2)(C(=O)O)C[C@@H](O)[C@H]1O [compound 11, 1,5-di-O-caffeoylquinic acid]",Inhibition (%) α-glucosidase,"[1]; 50 μg/mL, - is no activity",46.20%
same,Inhibition (%) AGEs,[2]; 100 μg/mL,25.04%
same,recombinant aldose reductase inhibitory activity,[3],strong
same,inhibition at 10 µg/mL,[4],10.6%
same,IC50,[4],> 19.4 µM
same,rat lens aldose reductase inhibitory activity,[5],strong
"Cc1ccc(C(=O)Nc2ccc(S(=O)(=O)O)c3cc(S(=O)(=O)O)cc(S(=O)(=O)O)c23)cc1NC(=O)c1cccc(NC(=O)Nc2cccc(C(=O)Nc3cc(C(=O)Nc4ccc(S(=O)(=O)O)c5cc(S(=O)(=O)O)cc(S(=O)(=O)O)c45)ccc3C)c2)c1 [Suramin, reference compound]",inhibition at 1.43 µg/mL,[4]; 1.43 μg/mL,10.4%
same,inhibition at 3.57 µg/mL,[4]; 3.57 μg/mL,26.4%
same,inhibition at 7.15 µg/mL,[4]; 7.15 μg/mL,52.2%
same,inhibition at 14.29 µg/mL,[4]; read-out: Inhibition (%) PTP1β,83.6%
"N=C(N)NN [Aminoguanidine, reference compound]",Inhibition (%) AGEs,[2]; 50 μg/mL,27.97%
same,Inhibition (%) AGEs,[2]; 100 μg/mL,37.84%
same,Inhibition (%) AGEs,[2]; 200 μg/mL,61.01%
same,Inhibition (%) AGEs,[2]; 400 μg/mL,98.17%
same,IC50 AGEs,"[2]; Table 2, crude extract and fractions",166.22 ± 16.29 µg/mL
same,IC50,[2]; isolated compounds,1410 µM
same,IC50 AGEs,[2]; isolated compounds,155.88 ± 15.45 µg/mL
"O=C(/C=C/c1ccc(O)c(O)c1)O[C@@H]1C[C@@](OC(=O)/C=C/c2ccc(O)c(O)c2)(C(=O)O)C[C@@H](O)[C@@H]1O [compound 12, 1,3-di-O-caffeoylquinic acid]",Inhibition (%) α-glucosidase,"[1]; 50 μg/mL, - is no activity",38.37%
same,Inhibition (%) AGEs,[2]; 100 μg/mL,40.19%
same,recombinant aldose reductase inhibitory activity,[3],strong
same,inhibition at 10 µg/mL,[4],22.3%
same,IC50,[4],> 19.4 µM
same,rat lens aldose reductase inhibitory activity,[5],strong
"C[C@H]1O[C@H](O[C@H]2[C@H](O)[C@@H](O)[C@@H](O[C@H]3[C@H](O)[C@@H](O)C(O)O[C@@H]3CO)O[C@@H]2CO)[C@H](O)[C@@H](O)[C@@H]1N[C@H]1C=C(CO)[C@@H](O)[C@H](O)[C@H]1O (stereo partly drawn) [Acarbose, reference compound]",Inhibition (%) α-glucosidase,"[1]; 50 μg/mL, - is no activity",16.98%
same,Inhibition (%) α-glucosidase,[1]; 250 μg/mL,41.06%
same,Inhibition (%) α-glucosidase,[1]; 500 μg/mL,60.29%
same,Inhibition (%) α-glucosidase,[1]; 1000 μg/mL,106.14%
same,IC50 α-glucosidase,[1]; [7],377.19 ± 38.17 µg/mL
same,IC50,[1]; isolated compounds,585 µM
same,IC50 α-glucosidase,[1]; [8],377.19 ± 37.8 µg/mL
"O=C(/C=C/c1ccc(O)c(O)c1)O[C@@H]1C[C@](O)(C(=O)O)C[C@@H](OC(=O)/C=C/c2ccc(O)c(O)c2)[C@H]1O [compound 10, 3,5-di-O-caffeoylquinic acid]",Inhibition (%) α-glucosidase,[1]; 5 μg/mL,9.34%
same,Inhibition (%) α-glucosidase,[1]; 25 μg/mL,33.72%
same,Inhibition (%) α-glucosidase,"[1]; 50 μg/mL, - is no activity",52.85%
same,Inhibition (%) α-glucosidase,[1]; 100 μg/mL,99.44%
same,IC50,[1]; isolated compounds,88.1 µM
same,IC50 α-glucosidase,[1]; [8],45.48 ± 4.52 µg/mL
same,Inhibition (%) AGEs,[2]; 100 μg/mL,42.91%
same,recombinant aldose reductase inhibitory activity,[3],strong
same,inhibition at 10 µg/mL,[4],18.4%
same,IC50,[4],> 19.4 µM
same,rat lens aldose reductase inhibitory activity,[5],strong
"O=C(/C=C/c1ccc(O)c(O)c1)O[C@@H]1C[C@](OC(=O)/C=C/c2ccc(O)c(O)c2)(C(=O)O)C[C@@H](OC(=O)/C=C/c2ccc(O)c(O)c2)[C@H]1O [compound 13, 1,3,5-tri-O-caffeoylquinic acid]",Inhibition (%) α-glucosidase,"[1]; 50 μg/mL, - is no activity",22.05%
same,Inhibition (%) AGEs,[2]; 100 μg/mL,40.22%
same,recombinant aldose reductase inhibitory activity,[3],strong
same,inhibition at 10 µg/mL,[4],39.2%
same,IC50,[4],> 14.7 µM
same,rat lens aldose reductase inhibitory activity,[5],strong
"O=C(O)c1ccc(O)c(O)c1 [compound 1, protocatechuic acid]",Inhibition (%) α-glucosidase,"[1]; 50 μg/mL, - is no activity",17.45%
same,Inhibition (%) AGEs,[2]; 100 μg/mL,9.49%
same,inhibition at 10 µg/mL,[4],28.6%
same,IC50,[4],> 64.9 µM
same,Inhibition (%) ABTS^+,[6]; 1.66 μg/mL,25.17%
same,Inhibition (%) ABTS^+,[6]; 8.33 μg/mL,68.72%
same,Inhibition (%) ABTS^+,[6]; 16.66 μg/mL,97.22%
same,IC50,[6],32.9 µM
same,IC50 ABTS^+ radical scavenging,[6]; - is no activity,4.94 ± 0.38 µg/mL
"Cc1c(C)c2c(c(C)c1O)CCC(C)(C(=O)O)O2 (stereo not drawn) [Trolox, reference compound]",Inhibition (%) ABTS^+,[6]; 1.66 μg/mL,17.27%
same,Inhibition (%) ABTS^+,[6]; 8.33 μg/mL,54.14%
same,Inhibition (%) ABTS^+,[6]; 16.66 μg/mL,95.06%
same,IC50 ABTS^+,[6]; [7],7.51 ± 0.58 µg/mL
same,IC50,[6],29.7 µM
same,IC50 ABTS^+ radical scavenging,[6]; - is no activity,7.43 ± 0.71 µg/mL
"O=C(/C=C/c1ccc(O)c(O)c1)O[C@@H]1C[C@](O)(C(=O)O)C[C@@H](O)[C@H]1O [compound 5, chlorogenic acid]",Inhibition (%) α-glucosidase,"[1]; 50 μg/mL, - is no activity",6.60%
same,Inhibition (%) AGEs,[2]; 100 μg/mL,7.47%
"O=C(O)C1OC(Oc2c(-c3ccc(O)c(O)c3)oc3cc(O)cc(O)c3c2=O)C(O)C(O)C1O (stereo not drawn) [compound 9, quercetin-3-O-glucuronide]",Inhibition (%) α-glucosidase,"[1]; 50 μg/mL, - is no activity",15.40%
same,Inhibition (%) AGEs,[2]; 100 μg/mL,23.96%
same,inhibition at 10 µg/mL,[4],10.7%
same,IC50,[4],> 20.9 µM
"O=C(CCO)c1ccc(O)cc1 [compound 2, 3-hydroxy-1-(4-hydroxyphenyl) propan-1-one]",Inhibition (%) α-glucosidase,"[1]; 50 μg/mL, - is no activity",8.60%
same,Inhibition (%) AGEs,[2]; 100 μg/mL,8.50%
same,inhibition at 10 µg/mL,[4],5.88%
same,IC50,[4],> 60.2 µM
"OC[C@H]1O[C@H](OC[C@H]2O[C@H](O[C@]3(CO)O[C@H](CO)[C@@H](O)[C@@H]3O)[C@H](O)[C@@H](O)[C@@H]2O)[C@H](O)[C@@H](O)[C@H]1O [compound 14, raffinose]",Inhibition (%) α-glucosidase,"[1]; 50 μg/mL, - is no activity",5.82%
same,Inhibition (%) AGEs,[2]; 100 μg/mL,14.99%
same,inhibition at 10 µg/mL,[4],< 0%
same,IC50,[4],> 19.8 µM
"COc1c(O)cc2oc(-c3ccc(O)c(O)c3)c(OC3OC(C(=O)O)C(O)C(O)C3O)c(=O)c2c1O (stereo not drawn) [compound 8, patuletin-3-glucuronide]",Inhibition (%) α-glucosidase,"[1]; 50 μg/mL, - is no activity",6.11%
same,Inhibition (%) AGEs,[2]; 100 μg/mL,6.11%
same,inhibition at 10 µg/mL,[4],< 0%
same,IC50,[4],> 19.7 µM
"Nc1ccn([C@@H]2O[C@H](CO)[C@@H](O)[C@H]2O)c(=O)n1 [compound 3, cytidine]",Inhibition (%) α-glucosidase,"[1]; 50 μg/mL, - is no activity",4.70%
same,Inhibition (%) AGEs,[2]; 100 μg/mL,33.16%
same,inhibition at 10 µg/mL,[4],< 0%
same,IC50,[4],> 41.1 µM

# Source: paper PMC6273932, “Xanthium strumarium as an Inhibitor of α-Glucosidase, Protein Tyrosine Phosphatase 1β, Protein Glycation and ABTS^+ for Diabetic and Its Complication” (Molecules, 2016)
